Reference: patent US20140061616A1, “ORGANIC SEMICONDUCTOR MATERIAL, COATING LIQUID CONTAINING THE MATERIAL, AND ORGANIC THIN FILM TRANSISTOR” (IDEMITSU KOSAN CO., LTD., priority 2010, published 2014)

What was measured:
[1] = Evaluation of solubility: temperature of toluene required to dissolve the compound at 0.4 mass %; assay type: physicochemical; settings: concentration of 0.4 mass %
[2] = Storage stability of organic semiconductor material: carrier mobility after storage in air; assay type: physicochemical; settings: deposited transistor stored for 9 days in air
Experimental: An organic thin film transistor was obtained in the same manner as in Example 17, except that pentacene (see the following formula) was used as the material for forming the organic semiconductor layer instead of the compound (A-3).
The field-effect mobility μ of holes in the organic thin film transistor was calculated in the same manner as in Example 17, and found to be […]. The carrier mobility calculated after storing the organic thin film transistor for 9 days in air was […].

Row | Dissolution temperature (° C.) in toluene [1] | Compound | Dissolution temperature (° C.) in toluene ([1]; listed as comparative compound (2)) | carrier mobility after storage [2] | deterioration in carrier mobility on storage [2]
1 | 90 °C | CCCCCCCCCCCCc1ccc2c(c1)sc1c2ccc2c1ccc1c3ccc(CCCCCCCCCCCC)cc3sc12 [Comparative compound (1)] | – | – | –
2 | 80 °C | CCCCCc1ccc2c(c1)sc1c2ccc2c1ccc1c3ccc(CCCCC)cc3sc12 [Compound A-3] | – | 1.1 cm^2/Vs | a deterioration in carrier mobility was not observed
3 | – | c1ccc2cc3cc4cc5ccccc5cc4cc3cc2c1 [pentacene] | – | 1.3×10^3 cm^2/Vs | –

Row | Compound | Dissolution temperature (° C.) in toluene [1] | Dissolution temperature (° C.) in toluene ([1]; listed as comparative compound (2)) | carrier mobility after storage [2] | deterioration in carrier mobility on storage [2]
4 | c1ccc2c(c1)sc1c2ccc2c1ccc1c3ccccc3sc12 [Comparative compound (2)] | Insoluble | not sufficiently dissolved | – | –
